{"source": "patent US12201626B2", "about": "“Bifunctional compositions for the treatment of cancer” (ARMACEUTICA, INC., priority 2018, dated 2025)", "test_system": "MDA-MB-231 LM2-LUC4 metastatic breast cancer cells", "assay": "Metastatic breast cancer tumours in mice, daily gavage", "format": "in vivo", "method": "Treatment began when tumors reached 150-300 mm^3 in size (i.e. Day 1).\nIn the PND-treated group (n=6), all 6 mice were given 160 mg/kg from Day 1 to Day 9. PND-treated mice numbers 2, 4, and 5 received 160 mg/kg for the entire study, while PND-treated mice numbers 1, 3, and 6 had the largest tumors in the group on Day 9, and had their doses increased on Day 10 to 240 mg/kg, and again on Day 13 to 320 mg/kg. The control mice (n=6) were given placebo throughout the study. The size of each tumor was measured daily. The protocol's endpoint was when a tumor reached 1500 mm^3 in size, triggering the euthanization of the mouse. For the analysis, the level of significance was set at P<0.05."}
{"smiles": "COC1=CC=C2Nc3cc(Cl)ccc3C(N=C3C=C(CN4CCCC4)C(=O)C(CN4CCCC4)=C3)=C2N1", "note": "[PND, 4-[(7-chloro-2-methoxy-1,5-dihydrobenzo[b][1,5]naphthyridin-10-yl)imino]-2,6-bis(pyrrolidin-1-ylmethyl)cyclohexa-2,5-dien-1-one]", "values": [{"measurement": "average tumor size", "setting": "160 mg/kg daily gavage, Day 1 to 9, control 750 mm^3, P 0.01", "value": 430, "unit": "mm^3"}, {"measurement": "PND accumulation on dissection (stomach, intestines, liver)", "setting": "6 PND-treated mice dissected", "value": "no sign of PND accumulation"}, {"measurement": "adverse events", "setting": "160-320 mg/kg daily gavage", "value": "no reports of negative adverse events except discomfort in walking after Day 15"}, {"measurement": "length of survival versus placebo", "setting": "160-320 mg/kg daily gavage", "value": "significant difference in lengths of survival favoring the PND-treated group"}, {"measurement": "weight, eating, grooming", "setting": "160-320 mg/kg daily gavage", "value": "no weight loss, no eating disorders, or grooming issues"}, {"measurement": "tumor size versus placebo", "setting": "Day 1 to 15, P 0.0001", "value": "tumors had grown larger in the placebo group than in the PND-treated group"}, {"measurement": "pigmentation at about Day 20", "setting": "all 6 PND-treated mice", "value": "yellowing in the eyes, skin, ears, and paws"}]}
